Measurements taken from paper doi:10.1101/2024.06.03.597093v3 (biorxiv, 2024).
Where two headings read alike, the source gives them in different places.

Experiments:
β2AR-NlucC (CRISPR) = β2AR-NlucC (CRISPR) (Homo sapiens, UniProt P07550); test: cell-based; conditions: HEK-293T, read-out: CRISPR_receptor Emax
β1AR-NlucC (CRISPR) = β1AR-NlucC (CRISPR) (Homo sapiens, UniProt P08588); conditions: CRISPR receptor; relative to adrenaline; agonist
β2AR-NlucC (β2AR) [1] = molecular target: T1, β2AR-NlucC (β2AR) (Homo sapiens, UniProt P07550); test: cell-based; conditions: HEK-293T, read-out: CRISPR_mGs Emax
T1 sequence (P07550 whole entry): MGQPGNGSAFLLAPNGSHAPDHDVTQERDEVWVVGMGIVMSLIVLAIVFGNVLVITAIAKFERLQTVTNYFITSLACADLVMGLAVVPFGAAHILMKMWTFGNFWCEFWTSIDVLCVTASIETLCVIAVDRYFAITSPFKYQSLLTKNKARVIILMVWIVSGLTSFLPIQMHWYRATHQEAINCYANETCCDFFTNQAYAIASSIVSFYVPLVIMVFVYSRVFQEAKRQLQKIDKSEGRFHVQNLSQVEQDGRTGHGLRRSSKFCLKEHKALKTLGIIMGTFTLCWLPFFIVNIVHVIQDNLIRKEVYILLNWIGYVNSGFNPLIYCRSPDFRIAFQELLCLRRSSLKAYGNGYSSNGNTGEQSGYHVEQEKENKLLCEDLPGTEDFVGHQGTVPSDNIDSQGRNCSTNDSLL

β2AR-NlucC (β2AR) [2] = molecular target: T1, β2AR-NlucC (β2AR); test: cell-based; conditions: HEK-293T, read-out: Mini-G Protein Recruitment / Emax (%) ± SEM

β1AR-NlucC (CRISPR), sequence (P08588 whole entry): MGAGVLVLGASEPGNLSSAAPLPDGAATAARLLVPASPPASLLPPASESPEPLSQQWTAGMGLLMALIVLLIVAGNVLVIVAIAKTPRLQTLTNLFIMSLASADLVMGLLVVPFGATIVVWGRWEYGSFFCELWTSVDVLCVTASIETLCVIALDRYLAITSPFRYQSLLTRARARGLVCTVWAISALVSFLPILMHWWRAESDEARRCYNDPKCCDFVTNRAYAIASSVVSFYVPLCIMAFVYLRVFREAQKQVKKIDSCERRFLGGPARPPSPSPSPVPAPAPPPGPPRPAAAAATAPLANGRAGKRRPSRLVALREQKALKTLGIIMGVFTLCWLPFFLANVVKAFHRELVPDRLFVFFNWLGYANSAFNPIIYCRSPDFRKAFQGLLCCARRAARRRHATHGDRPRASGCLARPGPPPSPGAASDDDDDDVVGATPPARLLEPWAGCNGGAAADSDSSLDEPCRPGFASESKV
β2AR-NlucC (CRISPR), sequence (P07550 whole entry): as the sequence (P07550 whole entry) above

Emax (β2AR-NlucC (CRISPR)): 61 ± 7% | CRISPR_receptor Emax (β1AR-NlucC (CRISPR)): 109 ± 7% | Emax (β2AR-NlucC (β2AR) [1]): 51 ± 4% | Emax (β2AR-NlucC (β2AR) [2]): 85 ± 2%
SMILES: NC[C@H](O)c1ccc(O)c(O)c1 [noradrenaline]
